# From US8916557B2, “Substituted 4-Aryl-N-phenyl-1,3,5-triazin-2-amines” (Bayer Intellectual Property GmbH, priority 2011, dated 2014)
# pIC50: −log10 of the molar value.
# How the values were obtained:
# [1] = molecular target: T1, CDK2/CycE (Homo sapiens, UniProt P24941); experiment: CDK2/CycE kinase assay (TR-FRET); type: biochemical; details: Method 2, 10 μM ATP
# T1 construct: GST; purchased ProQinase GmbH (Freiburg, Germany); host or cells: insect cells (Sf9)
# In short: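 GST-CDK2/GST-CycE (Sf9-expressed, ~130 ng/ml) pre-incubated with compound 15 min, then reacted 25 min at 22 °C with 10 μM ATP and 0.75 μM biotinylated peptide in Tris pH 8.0. Phospho-substrate detected by TR-FRET (anti-pRb pSer807/811, Eu/XL665), 665/620 nm ratio.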
# [2] = tested on: Caco-2 human colorectal carcinoma; experiment: Proliferation assay (crystal violet), Caco-2; type: cell-based; details: CACO-2 cells, read-out: Inhibition of CACO-2 cell proliferation
# Experimental: Cultivated tumour cells (NCI-H460, human non-small cell lung carcinoma cells, ATCC HTB-177; DU 145, hormone-independent human prostate carcinoma cells, ATCC HTB-81; HeLa-MaTu, human cervical carcinoma cells, EPO-GmbH, Berlin; HeLa-MaTu-ADR, multidrug-resistant human cervical carcinoma cells, EPO-GmbH, Berlin; HeLa human cervical tumour cells, ATCC CCL-2; Caco-2 human colorectal carcinoma, ATCC HTB-37; B16F10 mouse melanoma cells, ATCC CRL-6475) were plated at a density of 5000 cells/well (DU145, HeLa-MaTu-ADR), 3000 cells/well (NCI-H460, HeLa-MaTu, HeLa), 1500 cells/well (Caco-2), or 1000 cells/well (B16F10) in a 96-well multititer plate in 200 μL of their respective growth medium supplemented 10% fetal calf serum. After 24 hours, the cells of one plate (zero-point plate) were stained with crystal violet (see below), while the medium of the other plates was replaced by fresh culture medium (200 μl), to which the test substances were added in various concentrations (0 μM, as well as in the range of 0.001-10 μM; the final concentration of the solvent dimethyl sulfoxide was 0.5%). The cells were incubated for 4 days in the presence of test substances. Cell proliferation was determined by staining the cells with crystal violet: the cells were fixed by adding 20 μl/measuring point of an 11% glutaric aldehyde solution for 15 minutes at room temperature. After three washing cycles of the fixed cells with water, the plates were dried at room temperature. The cells were stained by adding 100 μl/measuring point of a 0.1% crystal violet solution (pH 3.0). After three washing cycles of the stained cells with water, the plates were dried at room temperature. The dye was dissolved by adding 100 μl/measuring point of a 10% acetic acid solution. The extinction was determined by photometry at a wavelength of 595 nm. The change of cell number, in percent, was calculated by normalization of the measured values to the extinction values of the zero-point plate (=0%) and the extinction of the untreated (0 μm) cells (=100%). The IC50 values were determined by means of a 4 parameter fit.
pIC50 [1],pIC50 [2],SMILES
6.40,6.51,"CS(=O)(=O)Cc1cccc(Nc2ncnc(-c3ccc(F)cc3OCc3ccncc3)n2)c1 [Example 89, 4-[4-Fluoro-2-(pyridin-4-ylmethoxy)phenyl]-N-{3-[(methylsulfonyl)methyl]phenyl}-1,3,5-triazin-2-amine]"
6.19,5.96,"CS(=O)(=O)Cc1cccc(Nc2ncnc(-c3ccc(F)cc3OCCF)n2)c1 [Example 61, 4-[4-Fluoro-2-(2-fluoroethoxy)phenyl]-N-{3-[(methylsulfonyl)methyl]phenyl}-1,3,5-triazin-2-amine]"
6.17,6.51,"CS(=O)(=O)Cc1cccc(Nc2ncnc(-c3ccc(F)cc3OCc3ccc(C#N)cc3)n2)c1 [Example 90, 4-({5-Fluoro-2-[4-({3-[(methylsulfonyl)methyl]phenyl}amino)-1,3,5-triazin-2-yl]phenoxy}methyl)-benzonitrile]"
6.08,6.16,"CS(=O)(=O)Cc1cccc(Nc2ncnc(-c3cccc4c3OCCO4)n2)c1 [Example 18, 4-(2,3-Dihydro-1,4-benzodioxin-5-yl)-N-{3-[(methylsulfonyl)methyl]phenyl}-1,3,5-triazin-2-amine]"
6.48,,"CS(=O)(=O)Cc1cccc(Nc2ncnc(-c3cc(F)ccc3OCc3cccc(F)c3)n2)c1 [Example 31, 4-{5-Fluoro-2-[(3-fluorobenzyl)oxy]phenyl}-N-{3-[(methylsulfonyl)methyl]phenyl}-1,3,5-triazin-2-amine]"
7.05,,"CS(=O)(=O)Cc1cccc(Nc2ncnc(-c3ccc(F)cc3OCc3ccccc3)n2)c1 [Example 4, 4-[2-(Benzyloxy)-4-fluorophenyl]-N-{3-[(methylsulfonyl)methyl]phenyl}-1,3,5-triazin-2-amine]"
5.89,,"COc1cc(F)ccc1-c1ncnc(Nc2cccc(CS(=O)(=O)C3CC3)c2)n1 [Example 40, N-{3-[(Cyclopropylsulfonyl)methyl]phenyl}-4-(4-fluoro-2-methoxyphenyl)-1,3,5-triazin-2-amine]"
4.92,6.16,"CS(=O)(=O)Cc1cccc(Nc2ncnc(-c3ccc(Cl)cc3OC3CCCC3)n2)c1 [Example 29, 4-[4-Chloro-2-(cyclopentyloxy)phenyl]-N-{3-[(methylsulfonyl)methyl]phenyl}-1,3,5-triazin-2-amine]"
6.19,,"COc1cc(F)c(F)cc1-c1ncnc(Nc2cccc(CS(C)(=O)=O)c2)n1 [Example 1, 4-(4,5-Difluoro-2-methoxyphenyl)-N-{3-[(methylsulfonyl)methyl]phenyl}-1,3,5-triazin-2-amine]"
6.49,,"COc1cc(F)ccc1-c1ncnc(Nc2cc(F)cc(CS(C)(=O)=O)c2)n1 [Example 10, 4-(4-Fluoro-2-methoxyphenyl)-N-{3-fluoro-5-[(methylsulfonyl)methyl]phenyl}-1,3,5-triazin-2-amine]"
6.89,,"CS(=O)(=O)Cc1cccc(Nc2ncnc(-c3ccc(F)cc3OCc3ccnc(Cl)c3)n2)c1 [Example 88, 4-{2-[(2-Chloropyridin-4-yl)methoxy]-4-fluorophenyl}-N-{3-[(methylsulfonyl)-methyl]phenyl}-1,3,5-triazin-2-amine]"
6.40,6.13,"Cc1cccc(COc2cc(F)ccc2-c2ncnc(Nc3cccc(CS(C)(=O)=O)c3)n2)c1 [Example 83, 4-{4-Fluoro-2-[(3-methylbenzyl)oxy]phenyl}-N-{3-[(methylsulfonyl)-methyl]phenyl}-1,3,5-triazin-2-amine]"
6.59,6.25,"CS(=O)(=O)Cc1cccc(Nc2ncnc(-c3ccc(F)cc3OCc3cccc(Cl)c3)n2)c1 [Example 85, 4-{2-[(3-Chlorobenzyl)oxy]-4-fluorophenyl}-N-{3-[(methylsulfonyl)methyl]phenyl}-1,3,5-triazin-2-amine]"
6.23,,"CCOc1cc(F)ccc1-c1ncnc(Nc2cccc(CS(C)(=O)=O)c2)n1 [Example 42, 4-(2-Ethoxy-4-fluorophenyl)-N-{3-[(methylsulfonyl)-methyl]phenyl}-1,3,5-triazin-2-amine]"
6.29,6.41,"CS(=O)(=O)Cc1cccc(Nc2ncnc(-c3cccc4c3OCCC4)n2)c1 [Example 12, 4-(3,4-Dihydro-2H-chromen-8-yl)-N-{3-[(methylsulfonyl)methyl]phenyl}-1,3,5-triazin-2-amine]"
6.43,6.14,"Cc1cc(COc2cc(F)ccc2-c2ncnc(Nc3cccc(CS(C)(=O)=O)c3)n2)ccn1 [Example 87, 4-{4-Fluoro-2-[(2-methylpyridin-4-yl)methoxy]-phenyl}-N-{3-[(methylsulfonyl)methyl]phenyl}-1,3,5-triazin-2-amine]"
6.25,6.24,"COc1cc(F)ccc1-c1ncnc(Nc2cccc(CS(=O)(=O)C3CCCCC3)c2)n1 [Example 9, N-{3-[(Cyclohexylsulfonyl)methyl]phenyl}-4-(4-fluoro-2-methoxyphenyl)-1,3,5-triazin-2-amine]"
6.27,,"CC#CCOc1cc(F)ccc1-c1ncnc(Nc2cccc(CS(C)(=O)=O)c2)n1 [Example 62, 4-[2-(But-2-yn-1-yloxy)-4-fluorophenyl]-N-{3-[(methylsulfonyl)methyl]phenyl}-1,3,5-triazin-2-amine]"
6.30,6.49,"CS(=O)(=O)Cc1cccc(Nc2ncnc(-c3ccccc3OCc3cccc(Cl)c3)n2)c1 [Example 28, 4-{2-[(3-Chlorobenzyl)oxy]phenyl}-N-{3-[(methylsulfonyl)methyl]phenyl}-1,3,5-triazin-2-amine]"
6.44,,"COc1cc(F)ccc1-c1ncnc(Nc2ccc(F)c(CS(C)(=O)=O)c2)n1 [Example 33, 4-(4-Fluoro-2-methoxyphenyl)-N-{4-fluoro-3-[(methylsulfonyl)methyl]phenyl}-1,3,5-triazin-2-amine]"
5.85,6.40,"CS(=O)(=O)Cc1cccc(Nc2ncnc(-c3ccc(F)cc3OCC3CC3)n2)c1 [Example 55, 4-[2-(Cyclopropylmethoxy)-4-fluorophenyl]-N-{3-[(methylsulfonyl)methyl]phenyl}-1,3,5-triazin-2-amine]"
5.80,,"COc1cc(F)ccc1-c1ncnc(Nc2cccc(CS(C)(=O)=O)c2)n1 [Example 3, 4-(4-Fluoro-2-methoxyphenyl)-N-{3-[(methylsulfonyl)methyl]phenyl}-1,3,5-triazin-2-amine]"

SMILES,pIC50 [1],pIC50 [2]
"CS(=O)(=O)Cc1cccc(Nc2ncnc(-c3ccc(F)cc3OCCCC(F)(F)F)n2)c1 [Example 59, 4-[4-Fluoro-2-(4,4,4-trifluorobutoxy)phenyl]-N-{3-[(methylsulfonyl)methyl]phenyl}-1,3,5-triazin-2-amine]",6.15,6.24
"CCCCOc1cc(F)ccc1-c1ncnc(Nc2cccc(CS(C)(=O)=O)c2)n1 [Example 44, 4-(2-Butoxy-4-fluorophenyl)-N-{3-[(methylsulfonyl)-methyl]phenyl}-1,3,5-triazin-2-amine]",6.04,6.00
